Like-named read-outs stand apart in the source and are kept apart here. No end group written: not given here. *: point of attachment. Acm = CC(=O)NC*
Key:
[1] = molecular target: T1, CRFR2 (Rattus norvegicus, UniProt P47866); test: stimulation of cAMP accumulation in A7r5 cells; type: cell-based
T1 construct: A7r5 cells, which express CRFR2; endogenous in cells; host or cells: A7r5 cells
Procedure: Urocortin 2 precursors were overexpressed in various cell lines, and their function was evaluated. Pancreatic and skin cell lines were infected with mouse urocortin 2 (mUcn 2) lentivirus. The amino acid sequence of mouse urocortin 2 is provided as SEQ ID NO:10. […] The peptide was synthesized and bioactivity was determined by the stimulation of cAMP accumulation in A7r5 cells, which express CRFR2. […] It is possible that R^0mUcn 2 could be further processed by aminopeptidases to mUcn 2(1-38). Number of assays are depicted as a superscript.
The corresponding human analog, R^0hUcn 2, was synthesized.
The EC50S were calculated based on protein determination by immunoassay and chromatographic peak height.

[2] = QC reverse phase HPLC (trifluoroacetic acid/acetonitrile) as evidence of solubility/hydrophilicity; type: physicochemical; settings: from reverse phase HPLC retention time
Description: A peptide extended with a hydrophilic arginine residue such as R^0hUcn 2 is likely more soluble, and therefore, a better pharmaceutical agent, than hUcn 2(1-38). […]

[3] = A7r5 cells, EC50s calculated based on protein determination by immunoassay and chromatographic peak height, read-out: cAMP A7r5 (EC50)
[4] = A7r5 cells, which express CRFR2, range in brackets, number of assays as superscript, read-out: EC50 for stimulation of cAMP accumulation in A7r5 cells

T1 sequence (P47866 1-431 isoform P47866-2): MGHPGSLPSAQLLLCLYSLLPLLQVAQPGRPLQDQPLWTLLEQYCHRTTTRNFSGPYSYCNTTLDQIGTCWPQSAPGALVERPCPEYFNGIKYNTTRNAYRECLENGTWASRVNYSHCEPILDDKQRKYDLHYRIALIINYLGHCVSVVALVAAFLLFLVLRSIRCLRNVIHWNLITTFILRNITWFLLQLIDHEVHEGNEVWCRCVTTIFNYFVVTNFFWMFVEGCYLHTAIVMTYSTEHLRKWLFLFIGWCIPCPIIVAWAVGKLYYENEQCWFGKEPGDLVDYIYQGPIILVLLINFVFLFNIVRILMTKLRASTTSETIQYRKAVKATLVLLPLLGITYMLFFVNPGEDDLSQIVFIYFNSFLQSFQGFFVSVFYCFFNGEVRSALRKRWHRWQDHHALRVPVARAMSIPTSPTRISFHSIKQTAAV

Substance	EC50 [1, 3] [nM]	other results
C(Acm)SPTRHPGSRIVLSLDVPIGLLQILLEQARARAAREQATTNARILARVGHC(Acm)-OH [[Cys^1,51 (Acm)]-hUcn 2(1-51)-OH)]	9.5	–
HPGSRIVLSLDVPIGLLQILLEQARARAAREQATTNARILARV-NH2 [SRP (HPGSR-hUcn 2)]	0.09	–
IPTFQLRPQNSPQTTPRPAASESPSAAPTWPWAAQSHCSPTRHPGSRIVLSLDVPIGLLQILLEQARARAAREQATTNARILARV-NH2 [hUcn 2 prohormone]	–	EC50 [1]: 2.3 nM
IVLSLDVPIGLLQILLEQARARAAREQATTNARILARVG-OH [hUcn 2-G-OH]	6.3	–
RIVLSLDVPIGLLQILLEQARARAAREQATTNARILARV-NH2 [R^0-hUcn 2]	–	hydrophilicity compared with hUcn 2(1-38) [2]: significantly increased hydrophilicity; EC50 [1, 4]: 0.027 nM
RVILSLDVPIGLLRILLEQARYKAARNQAATNAQILAHV-NH2 [R^0-mUcn 2]	–	EC50 [1, 4]: 0.05 nM
TPIPTFQLLPQNSLETTPSSVTSESSSGTTTGPSASWSNSKASPYLDTRVILSLDVPIGLLRILLEQARYKAARNQAATNAQILAHV-NH2 [mUcn 2 prohormone]	–	EC50 [1]: 0.53 nM

The next lines start with results.

EC50 [1, 3] [nM]	Substance	other results
90.4	IVLSLDVPIGLLQILLEQARARAAREQATTNARILARV-OH [hUcn 2-OH]	–
2.9	IVLSLDVPIGLLQILLEQARARAAREQATTNARILARVGH-OH [hUcn 2-GH-OH]	–
13.9	IVLSLDVPIGLLQILLEQARARAAREQATTNARILARVGHC-OH [hUcn 2-GHC-OH]	–

— patent US20180271945A1, “UROCORTIN 2 ANALOGS AND USES THEREOF” (Research Development Foundation, priority 2009, published 2018)
